Target: PDE4D3 (Homo sapiens, UniProt Q08499)
Sequence (Q08499 1-673 isoform Q08499-2): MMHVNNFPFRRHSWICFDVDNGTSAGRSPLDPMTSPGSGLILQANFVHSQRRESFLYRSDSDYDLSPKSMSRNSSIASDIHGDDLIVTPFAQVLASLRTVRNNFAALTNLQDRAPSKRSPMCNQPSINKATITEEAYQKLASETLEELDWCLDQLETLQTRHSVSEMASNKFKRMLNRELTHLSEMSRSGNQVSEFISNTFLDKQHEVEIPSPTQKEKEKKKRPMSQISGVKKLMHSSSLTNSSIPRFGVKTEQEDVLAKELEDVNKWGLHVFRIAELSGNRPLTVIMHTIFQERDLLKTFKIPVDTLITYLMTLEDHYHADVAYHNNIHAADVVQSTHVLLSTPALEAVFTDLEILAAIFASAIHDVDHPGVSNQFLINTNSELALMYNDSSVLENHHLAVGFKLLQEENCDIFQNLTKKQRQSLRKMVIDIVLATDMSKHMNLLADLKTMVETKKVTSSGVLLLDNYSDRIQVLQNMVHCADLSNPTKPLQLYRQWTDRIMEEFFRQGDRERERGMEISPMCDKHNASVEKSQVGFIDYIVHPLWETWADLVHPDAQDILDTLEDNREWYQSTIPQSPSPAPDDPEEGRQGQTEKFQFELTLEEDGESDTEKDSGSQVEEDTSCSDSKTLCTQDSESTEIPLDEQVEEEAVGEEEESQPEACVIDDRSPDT

SMILES | EC50
COc1ncc(Cc2cnc(N)nc2)cc1-c1ccnc(OC(F)F)c1 [Example 47, 5-({5-[2-(Difluoromethoxy)pyridin-4-yl]-6-methoxypyridin-3-yl}methyl)pyrimidin-2-amine] | < 100 nM
COc1ncc(Cc2cnc(C(C)(C)O)nc2)cc1-c1cccc(OC(F)F)c1 [Example 48, 2-[5-({5-[3-(Difluoromethoxy)phenyl]-6-methoxypyridin-3-yl}methyl)pyrimidin-2-yl]propan-2-ol] | < 100 nM
CC(C)Oc1ccc(Cc2cnc(OC(F)F)c(-c3cccc(Cl)c3)c2)cn1 [Example 50, 3-(3-Chlorophenyl)-2-(difluoromethoxy)-5-{[6-(propan-2-yloxy)pyridin-3-yl]methyl}pyridine] | 1000 to 10000 nM
CCCOc1ccc(Cc2cnc(OC(F)F)c(-c3cccc(Cl)c3)c2)cn1 [Example 51, 3-(3-Chlorophenyl)-2-(difluoromethoxy)-5-[(6-propoxypyridin-3-yl)methyl]pyridine] | 100 to 1000 nM
COc1ncc(Cc2ccc(=O)n(C)c2)cc1-c1cccc(Cl)c1 [Example 52, 5-{[5-(3-Chlorophenyl)-6-methoxypyridin-3-yl]methyl}-1-methyl-1,2-dihydropyridin-2-one] | 1000 to 10000 nM
O=C(O)c1ccc(Cc2cnc(OC(F)F)c(-c3cccc(Cl)c3)c2)cn1 [Example 54, 5-{[5-(3-Chlorophenyl)-6-(difluoromethoxy)pyridin-3-yl]methyl}pyridine-2-carboxylic acid] | 1000 to 10000 nM
COc1ncc(Cc2cnc(OC)c(-c3cccc(Cl)c3)n2)cn1 [Example 55, 3-(3-Chlorophenyl)-2-methoxy-5-[(2-methoxypyrimidin-5-yl)methyl]pyrazine] | < 100 nM
CNc1ncc(Cc2cnc(OC)c(-c3cccc(Cl)c3)n2)cn1 [Example 56, 5-{[6-(3-Chlorophenyl)-5-methoxypyrazin-2-yl]methyl}-N-methylpyrimidin-2-amine] | < 100 nM
COc1ncc(Cc2cnc(NC3CC3)nc2)nc1-c1cccc(Cl)c1 [Example 57, 5-{[6-(3-Chlorophenyl)-5-methoxypyrazin-2-yl]methyl}-N-cyclopropylpyrimidin-2-amine] | 100 to 1000 nM
COc1ncc(Cc2cnn(C)c2)nc1-c1cccc(Cl)c1 [Example 58, 3-(3-Chlorophenyl)-2-methoxy-5-[(1-methyl-1H-pyrazol-4-yl)methyl]pyrazine] | < 100 nM
COc1ncc(Cc2ccc(CN)cc2)cc1-c1cccc(Cl)c1 [Example 59, (4-{[5-(3-Chlorophenyl)-6-methoxypyridin-3-yl]methyl}phenyl)methanamine] | 100 to 1000 nM
COc1ncc(Cc2ccnc(C(N)=O)c2)cc1-c1cccc(Cl)c1 [Example 63, 4-{[5-(3-Chlorophenyl)-6-methoxypyridin-3-yl]methyl}pyridine-2-carboxamide] | 1000 to 10000 nM
COc1ncc(Cc2sc(C)nc2C)cc1-c1cccc(Cl)c1 [Example 66, 3-(3-Chlorophenyl)-5-[(dimethyl-1,3-thiazol-5-yl)methyl]-2-methoxypyridine] | < 100 nM
FC(F)Oc1ncc(Cc2cncs2)cc1-c1cccc(Cl)c1 [Example 68, 3-(3-Chlorophenyl)-2-(difluoromethoxy)-5-(1,3-thiazol-5-ylmethyl)pyridine] | < 100 nM
Cc1nc(C)c(Cc2cnc(OC(F)F)c(-c3cccc(Cl)c3)c2)s1 [Example 69, 3-(3-Chlorophenyl)-2-(difluoromethoxy)-5-[(dimethyl-1,3-thiazol-5-yl)methyl]pyridine] | < 100 nM
NC(=O)c1cncc(Cc2cnc(OC(F)F)c(-c3cccc(Cl)c3)c2)c1 [Example 70, 5-{[5-(3-Chlorophenyl)-6-(difluoromethoxy)pyridin-3-yl]methyl}pyridine-3-carboxamide] | 1000 to 10000 nM
NCc1cncc(Cc2cnc(OC(F)F)c(-c3cccc(Cl)c3)c2)c1 [Example 71, (5-{[5-(3-Chlorophenyl)-6-(difluoromethoxy)pyridin-3-yl]methyl}pyridin-3-yl)methanamine] | < 100 nM
Cc1ccc(Cc2cnc(OC(F)F)c(-c3cccc(Cl)c3)c2)cn1 [Example 72, 3-(3-Chlorophenyl)-2-(difluoromethoxy)-5-[(6-methylpyridin-3-yl)methyl]pyridine] | < 100 nM
Cc1ncc(Cc2cnc(OC(F)F)c(-c3cccc(Cl)c3)c2)s1 [Example 73, 3-(3-Chlorophenyl)-2-(difluoromethoxy)-5-[(2-methyl-1,3-thiazol-5-yl)methyl]pyridine] | < 100 nM
FC(F)Oc1ncc(Cc2nccs2)cc1-c1cccc(Cl)c1 [Example 74, 3-(3-Chlorophenyl)-2-(difluoromethoxy)-5-(1,3-thiazol-2-ylmethyl)pyridine] | 100 to 1000 nM

More lines, now with the values ahead:

EC50 | SMILES
100 to 1000 nM | COc1ncc(Cc2ccc(C(F)(F)F)nc2)cc1-c1cccc(Cl)c1 [Example 49, 3-(3-Chlorophenyl)-2-methoxy-{[6-(trifluoromethyl)pyridin-3-yl]methyl}pyridine]
100 to 1000 nM | COc1ncc(Cc2ccncc2)cc1-c1cccc(Cl)c1 [Example 53, 3-(3-Chlorophenyl)-2-methoxy-5-(pyridin-4-ylmethyl)pyridine]
100 to 1000 nM | COc1ncc(Cc2ccnc(N)c2)cc1-c1cccc(Cl)c1 [Example 60, 4-{[5-(3-Chlorophenyl)-6-methoxypyridin-3-yl]methyl}pyridin-2-amine]
1000 to 10000 nM | COc1ncc(Cc2cc(C)nc(C)c2)cc1-c1cccc(Cl)c1 [Example 61, 3-(3-Chlorophenyl)-5-[(2,6-dimethylpyridin-4-yl)methyl]-2-methoxypyridine]
1000 to 10000 nM | COc1ncc(Cc2ccnc(C#N)c2)cc1-c1cccc(Cl)c1 [Example 62, 4-{[5-(3-Chlorophenyl)-6-methoxypyridin-3-yl]methyl}pyridine-2-carbonitrile]
100 to 1000 nM | COc1ncc(Cc2cccnc2)cc1-c1cccc(Cl)c1 [Example 64, 3-(3-Chlorophenyl)-2-methoxy-5-(pyridin-3-ylmethyl)pyridine]
< 100 nM | COc1ncc(Cc2cncs2)cc1-c1cccc(Cl)c1 [Example 65, 3-(3-Chlorophenyl)-2-methoxy-5-(1,3-thiazol-5-ylmethyl)pyridine]
100 to 1000 nM | COc1ncc(Cc2cnc(OC)c(-c3cccc(Cl)c3)c2)cc1C [Example 67, 3-(3-Chlorophenyl)-2-methoxy-5-[(6-methoxy-5-methylpyridin-3-yl)methyl]pyridine]
100 to 1000 nM | COc1ncc(Cc2cnc(C)nc2)cc1-c1cccc(Cl)c1 [Example 75, 5-{[5-(3-Chlorophenyl)-6-methoxypyridin-3-yl]methyl}-2-methylpyrimidine]
< 100 nM | COc1ncc(Cc2cnc(OC)c(-c3cccc(Cl)c3)c2)cn1 [Example 76, 5-{[5-(3-Chlorophenyl)-6-methoxypyridin-3-yl]methyl}-2-methoxypyrimidine]
1000 to 10000 nM | COc1ncc(Cc2cnc(NC(C)C)nc2)cc1-c1cccc(Cl)c1 [Example 77, 5-{[5-(3-Chlorophenyl)-6-methoxypyridin-3-yl]methyl}-N-(propan-2-yl)pyrimidin-2-amine]
< 100 nM | COc1ncc(Cc2cncnc2)cc1-c1cccc(Cl)c1 [Example 78, 5-{[5-(3-Chlorophenyl)-6-methoxypyridin-3-yl]methyl}pyrimidine]
< 100 nM | COc1ncc(Cc2cnn(C)c2)cc1-c1cccc(Cl)c1 [Example 79, 3-(3-Chlorophenyl)-2-methoxy-5-[(1-methyl-1H-pyrazol-4-yl)methyl]pyridine]

Source: US9120770B2, “Substituted pyridine and pyrazine compounds as PDE4 inhibitors” (DART NEUROSCIENCE (CAYMAN) LTD., priority 2013, dated 2015)
